These results are taken from patent US12090157B2, “Non-invasive pet imaging of CDK4/6 activation in cancer” (New York University, priority 2020, dated 2024).

Data set [1] relates to CDK4/6. The data set is described as follows: IC50 binding affinity, competitive ATP quantitative assay (CellTiter-Glo, MCF-7 cells). It counts as cell-based, human. Particulars: for binding affinity to CDK4/6: FIG. 2A legend. On the procedure:
(§1) IC50 values were determined using a competitive ATP quantitative assay. […]. MCF-7 cells were cultured at 37° C. for 4 h. Then, ^19F-CDKi or vehicle was added at different concentration and incubated at 37° C. for 96 h. Cell viability was then assessed using CellTiter-Glo® Luminescent Assay (Promega, Madison, WI), used accordingly to manufacturer's guidelines. Cell viability inhibition (%) was calculated according to the formula [1−(mean luminosity of treated sample/mean luminosity of vehicle control)]×100. IC50 for growth or viability inhibition was calculated using Graph Prism 8 (GraphPad Software Inc, La Jolla, CA). We used ^18F-CDKi and palbobiclib for competitive displacement studies. MCF-7 cells were seeded in a 12 wells plate (1×10^5 cells 24 h prior the experiment). The next day, a fixed concentration of ^18F-CDKi (50 nM) was co-incubated with linearly doubling concentrations of palbociclib (from 0 to 500 nM) at 37° C. for 2 h. Then, the cells were washed twice with PBS, lysed with 1N NaOH, and the activity (CPM) measured in a γ-counter for bound ^18F radioligand. The percentage of bound radioligand was finally plotted against palbociclib concentration. Competitive displacement curves were fitted using Graph Prism 8 (GraphPad Software Inc, La Jolla, CA).
A general note: Cellular ATP, detected with luciferase, serves as a proxy for viable cell number.

For data set [2], the system named is MCF-7 cells. The data set is described as follows: In vitro cell-associated uptake of ^18F-CDKi. The format is cell-based, human. On the procedure:
MCF-7 cells were seeded in a 6 well plates (5×10^6 cells 24 hours prior the experiment). The next day, ^18F-CDKi was added alone or together with a 50-fold excess Palbociclib and incubated at 37° C. for 1 h. After 1 h, cells were firstly washed three times with PBS, then lysed with 1N NaOH, and finally media and cells counted in a γ-counter. The percentage of bound/unbound radioligand at each time point was measured in triplicate and plotted as a function of time.

A short description of data set [3]: Blood half-life. It counts as in vivo, mouse. Particulars: mice, single bolus intravenous injection. On the procedure:
The blood half-life of ^18F-CDKi was calculated by measuring the activity of blood samples collected at different time points p.i. (5, 15, 30, 45, 60, 90 and 120 minutes). Female nude mice (n=3) were injected via lateral tail vein with ^18F-CDKi (and blood samples obtained by retro-orbital bleed using tared capillary tubes. Samples were weighed, and activity was measured by γ-counter. The blood half-life was calculated using Graph Prism 7 (GraphPad Software, La Jolla, CA) using a two-phase decay least squares fitting method and expressed as % ID/g.

Data set [4] is described as follows: In vitro stability. It counts as in vitro ADME. The conditions noted are these: after 4 h of incubation.
Data set [5] is described as follows: Octanol/water partition coefficient. The format is physicochemical. Particulars: 1-octanol / phosphate buffered saline pH 7.4. On the procedure:
The Chemical Hydrophobicity Indices (CHI) were measured using a previously developed procedure (Valkó, Journal Chromatogr A. 2004; 1037:299-310, Valkó et al., Anal Chem. 1997; 69:2022-2029. Briefly, reverse phase HPLC was used to measure the retention times of a set of standards with known CHI. A standard curve was then created to calculate the CHI of […] based on the HPLC retention time. The lipophilicity of the ^18F-CDKi was acquired by adding 0.09 mBq to a mixture of 0.5 mL of 1-octanol and 0.5 mL of 25 mM phosphate buffered saline (pH 7.4) and mixed for 5 minutes. Then, the mixture was centrifuged at 15.000 rpm for 5 minutes. 100 μL samples were obtained from organic and aqueous layers, and the radioactivity of the samples were measured in a WIZARD^2 automatic γ-counter. The experiment was performed in triplicate, and the resulting log Pow was calculated as the mean±SD.

For data set [6], the system named is MCF-7 xenografts. The data set is described as follows: MicroPET/CT imaging and ex-vivo biodistribution in MCF-7 bearing mice. Also on record: species or system mouse. Particulars: for kidney concentration / liver concentration / small intestines concentration: 2 h post injection. On the procedure: Female athymic nude CrTac:NCr-Foxnlnu mice (n=35) were purchased from Taconic Laboratories (Hudson, NY). 20 mice received subcutaneous injections with 2×10^6 human MCF-7 cancer cells in Matrigel® (BD Biosciences, San Jose, CA) into each right shoulder and were allowed to grow for approximately two months until the tumors reached ˜10 mm in diameter. All mice were supplemented with 60 days 0.72 mg slow release estradiol pellets purchased from Innovative Research of America (IRA, Sarasota, FL) implanted in the left flank. Mice were anesthetized (isoflurane 1.5%, 2 L/min medical air) during tumor implantation and microPET imaging.
Twelve subcutaneous MCF-7 implanted athymic nude mice were divided in two groups (blocked and unblocked) and administered with ^18F-CDKi (˜7.4 mBq) via tail vein injection. Approximately 5 min prior to PET acquisition, mice were anesthetized by inhalation of a mixture of isoflurane (Baxter Healthcare, Deerfield, IL, USA; 2% isoflurane, 2 L/min medical air) and positioned on the scanner bed. Anesthesia was maintained using a 1% isoflurane/O2 mixture. PET data for each mouse was recorded and acquired at 30 min p.i and at 120 min p.i. Blocking studies were performed after a pre-injection of 50-fold excess palbociclib (8.4 nmol, 3.8 μg, 30 min before). The duration of the microPET/CT imaging sessions was 20 min each.
Biodistribution of ^18F-CDKi was performed in subcutaneous MCF-7 bearing athymic nude mice (n=8). Mice were divided (n=4/group) in blocked and unblocked (50-fold excess palbociclib, 30 minutes before) and administered with ^18F-CDKi via tail vein injection (1.85 mBq). At 120 minutes post injection of the radioligand, the mice were sacrificed and organs of interest were collected. Organs were weighed, and activity was measured with a WIZARD^2 automatic γ-counter (PerkinElmer, Boston, MA). The radiopharmaceutical uptake was expressed as a percentage of injected dose per gram (% ID/g) using the following formula: [(activity in the target organ/grams of tissue)/injected dose]×100%.

Data set [7] concerns MCF-7 cells. Briefly: Competitive displacement of ^18F-CDKi by palbociclib in MCF-7 cells. Particulars: 50 nM ^18F-CDKi, palbociclib 0 to 500 nM, 2 h, read-out: inhibition effect, competitive displacement of palbociclib. The format is cell-based, human. On the procedure: as §1
Where [8] appears, read: first of two values joined by 'or'.
Setting [9] is: second of two values joined by 'or'.

Where “and” joins values, the source holds several entries; their conditions need not be identical. Equal entries are not always repeated. Where two headings read alike, the source gives them in different places. A value given as a limit tells only on which side of the number the result lay.

With `CC(=O)c1c(C)c2cnc(Nc3ccc(N4CCN(C(=O)c5ccc([18F])cc5)CC4)cn3)nc2n(C2CCCC2)c1=O` [^18F-CDKi], the IC50 in data set [1] (FIG. 2A, read-out: targeting affinity to CDK4/6) was around 0.013 µM. In data set [1] (in words), the “IC50 against both CDK4 and CDK6 kinases” value is “single digit nanomolar”; the “binding affinity to CDK4/6” value is on record as “nanomolar”. Also, the IC50 entry in data set [1] (in words, similar to the parent compound palbociclib) is “nanomolar range”. The “cell uptake blocked by excess of cold, unlabeled palbociclib” value in data set [2] is reported as above 98%. Also, the maximum intracellular concentration in data set [2] (10 minutes post incubation) is listed as around 65%. In data set [2] (blocked), the “tracer uptake when co-incubated with a molar excess of Palbociclib” value is below 5%. Moreover, in data set [3], the “in vivo blood half-life t1/2(weighted)” value was 7.03 min and 7 min. In data set [4], the “in vitro stability, parent compound intact” value was “more than 98%”. In addition, the “octanol/water phase partition coefficient (log DO/W)” value in data set [5] is 1.91±0.24. For the same molecule, the logD in data set [5] (read-out: octanol/water phase partition coefficient (log DO/W)) was determined as 1.91 ± 0.24. In data set [6] (setting [8]), this molecule returned a kidney concentration of 7.99±0.7 % ID/g, a liver concentration of 6±0.5 % ID/g and a small intestines concentration of 9.6±2.7 % ID/g. In data set [6] (setting [9]), this molecule returned a kidney concentration of 9.6±0.98 % ID/g, a liver concentration of 6.77±1.15 % ID/g and a small intestines concentration of 10±1.19 % ID/g. Besides, in data set [6] (MCF-7 bearing mice, 2 h p.i.), the tumor-to-blood ratio was above 5, the tumor-to-bone ratio is reported as above 10 and the tumor-to-muscle ratio is given as above 15. The “tumor uptake after injection of palbociclib prior to the radiotracer” value in data set [6] (MCF-7 bearing mice, in words) is “negligible”. Moreover, the “tumor uptake, blocked” value in data set [6] (MCF-7 xenografts, 50-fold excess of cold palbociclib pre-injected) was around 0.3 % ID/g. The tumor uptake in data set [6] (MCF-7 xenografts, ^18F-CDKi alone, 2 h p.i.) is reported as around 4 % ID/g. The clearance route result in data set [6] (PET imaging and biodistribution, mice) is given as “hepatobiliary route”.
Take `CC(=O)c1c(C)c2cnc(Nc3ccc(N4CCN(C(=O)c5ccc(F)cc5)CC4)cn3)nc2n(C2CCCC2)c1=O` [^19F-CDKi]: the “binding affinity to CDK4/6” value in data set [1] (in words) was “nanomolar”. The IC50 in data set [7] is around 0.018 µM.
